# Assay results published in patent US9498532B2, “Antibody drug conjugates” (Novartis AG, priority 2013, dated 2016).
# Test system: CHGA119 primary gastric tumor xenograft
# Assay: Anti-tumor activity and host response in CHGA119 patient-derived xenograft
# Settings: CHGA119-tumor bearing mice, ADCs 10 mg/kg i.v. q2wk, BGJ398 10 mg/kg p.o. qd
# Description: In these studies, CHGA119 tumor fragments in size of 2 mm×2 mm×2 mm were implanted subcutaneously (s.c.) into female nu/nu athymic mice. […] Tumors were calipered twice a week.
smiles,measurement,setting,value
"CCN1CCN(c2ccc(Nc3cc(N(C)C(=O)Nc4c(Cl)c(OC)cc(OC)c4Cl)ncn3)cc2)CC1 [BGJ398, 3-(2,6-Dichloro-3,5-dimethoxy-phenyl)-1-{6-[4-(4-ethyl-piperazin-1-yl)-phenylamino]-pyrimidin-4-yl}-1-methyl-urea]",Host response % body weight change (mean ± SEM),,−3.7 ± 3%
same,Host response Mean body weight change (g ± SEM),,-0.8 ± 0.7 g
same,Mean tumor volume change (mm^3 ± SEM),,386 ± 169 mm^3
same,Survival (survivors/total),,8/8
same,Tumor response T/C (%),after 5 weeks of treatment,33%
